Data on six compounds can be found in US7875422B2, “Viral drug susceptibility testing” (Cavidi AB, priority 2001, dated 2011).

Experiment [1] concerns HIV 1 virus with the corresponding RT modification. The arrangement: key: S = sensitive; L = Low level resistance (2–10 times increase in inhibitory dose); I = Intermediate resistance (10–100 times increase); H = High level resistance (>100 times increase). The conditions noted are these: phenotype data from literature, cited from earlier work.
Experiment [2] deals with HIV RT recovered from patient plasma (UniProt P04585, K690N/V695H, species not given). The experiment can be described thus: Susceptibility to AZT-TP and d4T-TP using plasma derived RTs (Chain-termination reaction mixture). The conditions noted are these: plasma RT of patient code 2098; 5 fg/well.
Experiment [3] has as its system HIV RT recovered from patient plasma. The description is as above. Particulars: compared to wild type control RT.
Description: (§1) • 1) Label the 4.5 ml plastic tubes to be used. Place them in a Nalgene box. Add 1 ml of sample (e.g. EDTA plasma from HIV infected individuals) to each labelled tube. Add 100 μl of a 66 mM solution of 5,5′-dithiobis-(2-nitrobenzoic acid) in buffered water, vortex and incubate the samples for one hour at room temperature.
(§2) The activity of the free plasma enzymes is destroyed during this procedure while the enzymes contained within the virions remain intact. The virions can then be purified from 5,5′-dithiobis-(2-nitrobenzoic acid), enzyme activity blocking antibodies and other substances that may interfere with quantification of viral RT by several separation procedures. The protocol below is based on the use of Fractogel® EMD TMAE Hicap gel. • 2) Suspend the separation gel carefully and transfer 1500 μl gel slurry to each sample pretreatment tube. • 3) Incubate the samples with the gel slurry for 90 minutes at room temperature with the tubes lying down horizontally on an orbital shaker. • 4) Label the desired amount of 10 ml plastic mini columns to identify the samples being analyzed. Mount the columns in a column washing device i.e. a Supelco Visiprep solid phase extraction vacuum manifold. Transfer the contents in the binding tubes to their corresponding columns. Before transfer vortex the tube briefly to evenly distribute the gel. • 5) When all the columns are filled, apply the vacuum and suck the gels dry. Turn off the vacuum and start the washing by filling each column with 9 ml buffer A. When all columns have been filled, apply the vacuum and suck the gels dry. • 6) Repeat step 5 three more times, giving a total of four washes. Suck the gels dry after each wash. After sucking the gels dry after the fourth wash, turn off the vacuum and proceed to step 7. • The washing step removes unbound RT blocking antibodies and 5,5′-dithiobis-(2-nitrobenzoic acid) from the system. • 7) Add to all dry gels 9 ml of conditioning buffer (B). After one minute apply vacuum and suck the gels dry. • 8) Repeat step 7. Before turning off the vacuum check that all conditioning buffer (B) has been removed from all gels. • 9) Lift off the upper part of the column wash device. Mount the tube holder with the labelled tubes into a clean container. Refit the upper part of the device. Control that the small tubings from each column go down in their corresponding tubes. • 10) Add 600 μl lysis buffer (C) to each column. Let the buffer stand in the column for five minutes. Then apply the vacuum slowly and suck the gels dry. This will in each tube give approximately 600 μl of virus lysate from the connected gel.
(§3) The RT activity recovered in the lysates from step 10 are essentially free from RT blocking antibodies, drugs and cellular polymerase activity, and can be quantified with a sensitive RT activity assay, i.e. the Cavidi HS-kit Lenti RT, which is based on the method described by Ekstrand et al [7]. 25 μl lysate obtained according to the current protocol is sufficient for determination of the RT activity in the sample. The Remaining 575 μl sample should be frozen at −70° C. or below for later use in the drug sensitivity test.
Experiment [4] has as its target HIV RT recovered from patient plasma (UniProt P04585, T656N/L687I/K690N, species not given). The experiment is described as above. Particulars: plasma RT of patient code 622; 5 fg/well.
Experiment [5] deals with HIV RT recovered from patient plasma (UniProt P04585, K657R/L797S, species not given). The experiment is described as above. The conditions noted are these: plasma RT of patient code 1030 (K70R, L210S); 5 fg/well.
Experiment [6] addresses HIV RT recovered from patient plasma (UniProt P04585, M628L/E631D/D654N/A685G/V705I/Y768C/L797W/T802Y, species not given). The description is as above. The conditions noted are these: plasma RT of patient code 656 (resensitising 181C); 5 fg/well.
Experiment [7] addresses HIV RT recovered from patient plasma (Human immunodeficiency virus type 1, UniProt P03366). The description is as above. Particulars: 5 fg/well.
Description: as §1, §2, §3
The target of experiment [8] is recombinant HIV 1 RT wild type HxB2 (Human immunodeficiency virus type 1 group M subtype B, UniProt P04585). The experiment is described as follows: RT inhibition assay for dT analogues (Chain-termination reaction mixture).
Excerpt: (§4) Regrettably an efficient phosphorolysis reaction is promptly reflected by a decrease in polymerization velocity and as a consequence also a decrease in detection sensitivity. Therfore this assay require more RT activity, compared to the corresponding assay for the NNRTIs.
Experiment [9] has as its target T1, recombinant HIV 1 RT wild type (Human immunodeficiency virus type 1 group M subtype B, UniProt P04585).
T1 construct: This variation was maximal for wild type RT; made in house
The experiment can be described thus: Influence of the amount of RT used in the drug susceptibility tests (AZT-TP). The experiment is classed as biochemical.

Experiment [10] relates to recombinant HIV 1 RT M41L/T69S-SS/L210W/R211K/L214F/T215Y. Particulars: Recombinant RT control T69S→SS; compared to wild type control RT.
Excerpt: as §4
Experiment [11] concerns the target recombinant HIV 1 RT M41L/T69S-SS/L210W/R211K/L214F/T215Y (Human immunodeficiency virus type 1 group M subtype B, UniProt P04585, INS655SS/L797W/L801F/M628L/R798K/T656S/T802Y). The experiment can be described thus: biochemical.
Excerpt: as §4
Experiment [12] concerns the target recombinant HIV 1 RT wild type BH10 (Human immunodeficiency virus type 1 group M subtype B, UniProt P03366). The experiment is described as follows: RT inhibition assay for dT analogues (Chain-termination reaction mixture). Particulars: for fold increase of IC50: Recombinant RT control wild type RT (Table 4).
Experiment [13] addresses recombinant HIV 1 RT T215Y (Human immunodeficiency virus type 1 group M subtype B, UniProt P04585, T802Y). The description is as above.
Excerpt: as §4
The test system of experiment [14] is HIV 1 virus with the corresponding RT modification. The arrangement: key: S = sensitive; L = Low level resistance (2–10 times increase in inhibitory dose); I = Intermediate resistance (10–100 times increase); H = High level resistance (>100 times increase). The conditions noted are these: dT analogues, phenotype data from literature, cited from earlier work.
The test system is the same in experiment [15]. The arrangement: key: RS = the mutations gives re-sensitation of resistant virus; S = sensitive; L = Low level resistance; I = Intermediate resistance; H = High level resistance. The conditions noted are these: phenotype data from literature, cited from earlier work.
[16] abbreviates: IC50, plasma RT of patient code 48.
Setting [17] is: IC50, plasma RT of patient code 160.
Where [18] appears, read: IC50, plasma RT of patient code 181.
[19] abbreviates: IC50, plasma RT of patient code 662.
[20] abbreviates: IC50, plasma RT of patient code 807.
The mark [21] stands for this setting: IC50, plasma RT of patient code 3507.
Setting [22] is: virus with M41L/T69S-SS/L210W/R211K/L214F/T215Y.

Where two headings read alike, the source gives them in different places.

Consider `O=C1Nc2ccc(Cl)cc2C(C#CC2CC2)(C(F)(F)F)O1` (single isomer, unassigned; (-)) [Efavirienz, (−)6-chloro-4-cyclopropylethynyl-4-trifluoromethyl-1,4-dihydro-2H-3,1-benzoxazin-2-one], for which the “Sensitivity of the corresponding virus” value in experiment [1] (virus with K103N) is “H (H = High level resistance (>100 times increase))”; in experiment [1] (virus with L100I/K103N) it was “H (H = High level resistance (>100 times increase))”; in [1] (virus with L100I), “I (I = Intermediate resistance (10–100 times increase))”; in [1] (wild type BH10, NNRTIs) it was “S”; in experiment [1] (wild type HxB2, NNRTIs), “S”.
What is called IC50 is the concentration at which inhibition is half-maximal. Take `Cc1cn(C2CC(N=[N+]=[N-])C(COP(=O)(O)OP(=O)(O)OP(=O)(O)O)O2)c(=O)[nH]c1=O` (centres unmarked) [AZT-TP, 3′-azido-2′,3′-deoxythymidine triphosphate]: the IC50 in experiment [2] was found to be 350 nM; in experiment [4], 230 nM; in experiment [5] it was 3200 nM; in [6], 1250 nM; in experiment [7] (setting [16]), 470 nM; in experiment [7] (setting [17]) it was 270 nM. The IC50 in experiment [7] (setting [18]) is 500 nM; in experiment [7] (setting [19]), 500 nM; in experiment [7] (setting [20]), 500 nM; in [7] (setting [21]), 130 nM; in experiment [8] it was 190 nM; in [9] (RT amount 2 fg/well) it was 130 nM. In addition, the IC50 in [9] (RT amount 162 fg/well) is 220 nM; in experiment [11] it was 4000 nM; in [12], 160 nM; in experiment [13], 690 nM. Further, the “fold increase of IC50” value in [3] (patient code 48) was 2.9 fold; in experiment [3] (patient code 160) it was 1.7 fold; in experiment [3] (patient code 181), 3.1 fold; in experiment [3] (patient code 393), 20 fold; in experiment [3] (patient code 622), 1.4 fold; in experiment [3] (patient code 656), 7.8 fold. For the same compound, the “fold increase of IC50” value in experiment [3] (patient code 662) stood at 3.1 fold; in experiment [3] (patient code 807) it was 3.1 fold; in [3] (patient code 1030) it was 20 fold; in experiment [3] (patient code 1144), 3.5 fold; in [3] (patient code 1320), 8.3 fold; in experiment [3] (patient code 2098), 2.2 fold. In addition, the figures for the “fold increase of IC50” value in experiment [3] (patient code 3507), in [10] and in [12] were 0.8 fold, 25 fold and 1.0 fold, respectively.
Regarding `Cc1cn([C@H]2C[C@H](N=[N+]=[N-])[C@@H](CO)O2)c(=O)[nH]c1=O` [AZT], the “Sensitivity of the corrsponding virus” value is “S” in experiment [14] (wild type HXB2), “S” in [14] (wildtype BH 10), “H” in experiment [15] (setting [22]) and “I” in [15] (virus with T215Y).
As to `Cc1ccnc2c1NC(=O)c1cccnc1N2C1CC1` [Nevirapin, 11-cyclopropyl-5,11-dihydro-4-methyl-6H-dipyrido[3,2-b:2′,3′-f][1,4]diazepin-6-one], the “Sensitivity of the corresponding virus” value in [1] (virus with K103N) is recorded as “H (H = High level resistance (>100 times increase))”; in experiment [1] (virus with L100I/K103N) it was “H (H = High level resistance (>100 times increase))”; in [1] (virus with L100I) it was “L (L = Low level resistance (2–10 times increase in inhibitory dose))”; in experiment [1] (wild type BH10, NNRTIs), “S”; in experiment [1] (wild type HxB2, NNRTIs), “S”.
Take `Cc1cn([C@H]2C=C[C@@H](COP(=O)(O)OP(=O)(O)OP(=O)(O)O)O2)c(=O)[nH]c1=O` [d4T-TP, 2′,3′-didehydro-3′-deoxythymidine triphosphate]: the half-maximal inhibitory concentration (IC50) in experiment [2] was 48 nM; in [4] it was 28 nM; in [5] it was 1100 nM; in [6] it was 170 nM; in [7] (setting [16]), 85 nM; in experiment [7] (setting [17]), 43 nM. Moreover, the IC50 in experiment [7] (setting [18]) came to 49 nM; in [7] (setting [19]) it was 65 nM; in experiment [7] (setting [20]), 70 nM; in experiment [7] (setting [21]) it was 20 nM; in experiment [8], 50 nM; in experiment [11], 490 nM. The IC50 was found to be 33 nM in experiment [12] and 150 nM in experiment [13]. The “fold increase of IC50” value in experiment [3] (patient code 48) came out at 2.6 fold; in experiment [3] (patient code 160), 1.3 fold; in experiment [3] (patient code 181) it was 1.5 fold; in experiment [3] (patient code 393) it was 12.7 fold; in experiment [3] (patient code 622), 0.8 fold; in experiment [3] (patient code 656), 5.2 fold. Further, the “fold increase of IC50” value in [3] (patient code 662) turned out to be 2.0 fold; in [3] (patient code 807), 2.7 fold; in experiment [3] (patient code 1030), 33 fold; in [3] (patient code 1320), 19.6 fold; in experiment [3] (patient code 2098) it was 1.5 fold; in [3] (patient code 3507) it was 0.6 fold. Besides, the results for the “fold increase of IC50” value in experiment [10] and in [12] were 15 fold and 1.0 fold, respectively.
Consider `Cc1cn([C@H]2C=C[C@@H](CO)O2)c(=O)[nH]c1=O` [d4T], for which the “Sensitivity of the corrsponding virus” value is “S” in experiment [14] (wild type HXB2), “S” in [14] (wildtype BH 10), “H” in [15] (setting [22]) and “L” in experiment [15] (virus with T215Y).
